PubChem BioAssay (NCI)
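Assay format: 96-well plates, 48-hour exposure. GI50 marks 50% less growth. TGI marks complete inhibition of growth.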

How the values were obtained:
Test in all cases: NCI anticancer screen, dose series, 48 h
MDA-MB-435 = tested on: MDA-MB-435
COLO 205 colon = tested on: COLO 205 colon
HOP-62 NSCLC = tested on: HOP-62 NSCLC
MOLT-4 leukemia = tested on: MOLT-4 leukemia
SW-620 colon = tested on: SW-620 colon
T-47D breast = tested on: T-47D breast
UO-31 renal = tested on: UO-31 renal
U251 CNS = tested on: U251 CNS
UACC-62 melanoma = tested on: UACC-62 melanoma
RPMI-8226 leukemia = tested on: RPMI-8226 leukemia
RXF 393 renal = tested on: RXF 393 renal
SK-OV-3 ovarian = tested on: SK-OV-3 ovarian
EKVX NSCLC = tested on: EKVX NSCLC
LOX IMVI melanoma = tested on: LOX IMVI melanoma
DU-145 prostate = tested on: DU-145 prostate
PC-3 prostate = tested on: PC-3 prostate
NCI-H226 lung = tested on: NCI-H226 lung
SNB-19 CNS = tested on: SNB-19 CNS
NCI/ADR-RES ovarian = tested on: NCI/ADR-RES ovarian
MDA-MB-231 breast = tested on: MDA-MB-231 breast
HOP-92 NSCLC = tested on: HOP-92 NSCLC
OVCAR-4 ovarian = tested on: OVCAR-4 ovarian
ACHN renal = tested on: ACHN renal
A549 NSCLC = tested on: A549 NSCLC
OVCAR-3 ovarian = tested on: OVCAR-3 ovarian
K-562 leukemia = tested on: K-562 leukemia
SK-MEL-2 melanoma = tested on: SK-MEL-2 melanoma
A498 renal = tested on: A498 renal
CAKI-1 renal = tested on: CAKI-1 renal
OVCAR-5 ovarian = tested on: OVCAR-5 ovarian
BT-549 breast = tested on: BT-549 breast
HCC-2998 colon = tested on: HCC-2998 colon
786-0 renal = tested on: 786-0 renal
HCT-15 colon = tested on: HCT-15 colon
SK-MEL-28 melanoma = tested on: SK-MEL-28 melanoma
NCI-H460 lung = tested on: NCI-H460 lung
UACC-257 melanoma = tested on: UACC-257 melanoma
MCF7 breast = tested on: MCF7 breast
SF-539 CNS = tested on: SF-539 CNS
M14 melanoma = tested on: M14 melanoma
SNB-75 CNS = tested on: SNB-75 CNS
NCI-H23 lung = tested on: NCI-H23 lung
KM12 colon = tested on: KM12 colon
CCRF-CEM leukemia = tested on: CCRF-CEM leukemia
SF-268 CNS = tested on: SF-268 CNS
SK-MEL-5 melanoma = tested on: SK-MEL-5 melanoma
TK-10 renal = tested on: TK-10 renal
HCT-116 colon = tested on: HCT-116 colon
SF-295 CNS = tested on: SF-295 CNS
SR leukemia = tested on: SR leukemia
SN12C renal = tested on: SN12C renal
NCI-H522 lung = tested on: NCI-H522 lung
IGROV1 ovarian = tested on: IGROV1 ovarian
OVCAR-8 ovarian = tested on: OVCAR-8 ovarian
HL-60(TB) leukemia = tested on: HL-60(TB) leukemia
HS 578T breast = tested on: HS 578T breast

SMILES: COc1ccc(C2c3c(n(C)c(=O)n(C)c3=O)OC(N(C)C)(N(C)C)C2(F)F)cc1 (configuration not stated)
- TGI (MDA-MB-435): > 100 µM
- TGI (COLO 205 colon): > 100 µM
- TGI (HOP-62 NSCLC): > 100 µM
- TGI (MOLT-4 leukemia): > 100 µM
- TGI (SW-620 colon): > 100 µM
- TGI (T-47D breast): > 100 µM
- TGI (UO-31 renal): > 100 µM
- TGI (U251 CNS): > 100 µM
- TGI (UACC-62 melanoma): > 100 µM
- TGI (RPMI-8226 leukemia): > 100 µM
- TGI (RXF 393 renal): > 100 µM
- TGI (SK-OV-3 ovarian): > 100 µM
- TGI (EKVX NSCLC): > 100 µM
- TGI (LOX IMVI melanoma): > 100 µM
- TGI (DU-145 prostate): > 100 µM
- TGI (PC-3 prostate): > 100 µM
- TGI (NCI-H226 lung): > 100 µM
- TGI (SNB-19 CNS): > 100 µM
- TGI (NCI/ADR-RES ovarian): > 100 µM
- TGI (MDA-MB-231 breast): > 100 µM
- TGI (HOP-92 NSCLC): > 100 µM
- TGI (OVCAR-4 ovarian): > 100 µM
- TGI (ACHN renal): > 100 µM
- TGI (A549 NSCLC): > 100 µM
- TGI (OVCAR-3 ovarian): > 100 µM
- TGI (K-562 leukemia): > 100 µM
- TGI (SK-MEL-2 melanoma): > 100 µM
- TGI (A498 renal): > 100 µM
- TGI (CAKI-1 renal): > 100 µM
- TGI (OVCAR-5 ovarian): > 100 µM
- TGI (BT-549 breast): > 100 µM
- TGI (HCC-2998 colon): > 100 µM
- TGI (786-0 renal): > 100 µM
- TGI (HCT-15 colon): > 100 µM
- TGI (SK-MEL-28 melanoma): > 100 µM
- TGI (NCI-H460 lung): > 100 µM
- TGI (UACC-257 melanoma): > 100 µM
- TGI (MCF7 breast): > 100 µM
- TGI (SF-539 CNS): > 100 µM
- TGI (M14 melanoma): > 100 µM
- TGI (SNB-75 CNS): > 100 µM
- TGI (NCI-H23 lung): > 100 µM
- TGI (KM12 colon): > 100 µM
- TGI (CCRF-CEM leukemia): > 100 µM
- TGI (SF-268 CNS): > 100 µM
- TGI (SK-MEL-5 melanoma): > 100 µM
- TGI (TK-10 renal): > 100 µM
- TGI (HCT-116 colon): > 100 µM
- TGI (SF-295 CNS): > 100 µM

SMILES: O=C1C=CC(=O)C(c2cc(-c3ccc(Cl)cc3)nn2-c2ccccc2)=C1
- GI50 (MDA-MB-435): 20.5 µM
- TGI (MDA-MB-435): 46 µM
- GI50 (MOLT-4 leukemia): 37.4 µM
- TGI (MOLT-4 leukemia): > 100 µM
- GI50 (SW-620 colon): 32.9 µM
- TGI (SW-620 colon): > 100 µM
- GI50 (UO-31 renal): 38.1 µM
- TGI (UO-31 renal): > 100 µM
- GI50 (SR leukemia): 34.4 µM
- TGI (SR leukemia): > 100 µM
- GI50 (UACC-62 melanoma): 16.6 µM
- TGI (UACC-62 melanoma): 30.7 µM
- GI50 (RPMI-8226 leukemia): 16.1 µM
- TGI (RPMI-8226 leukemia): 41 µM
- GI50 (SN12C renal): 23.5 µM
- TGI (SN12C renal): 46.9 µM
- GI50 (EKVX NSCLC): 41.6 µM
- TGI (EKVX NSCLC): > 100 µM
- GI50 (DU-145 prostate): 25.4 µM
- TGI (DU-145 prostate): 91.1 µM
- GI50 (PC-3 prostate): 17.4 µM
- TGI (PC-3 prostate): 41.6 µM
- GI50 (NCI-H226 lung): 16.9 µM
- TGI (NCI-H226 lung): 59.6 µM
- GI50 (NCI/ADR-RES ovarian): 23.4 µM
- TGI (NCI/ADR-RES ovarian): 54.7 µM
- GI50 (MDA-MB-231 breast): 12.2 µM
- TGI (MDA-MB-231 breast): 29 µM
- GI50 (HOP-92 NSCLC): 23.5 µM
- TGI (HOP-92 NSCLC): 67.2 µM
- GI50 (ACHN renal): 20.6 µM
- TGI (ACHN renal): 41.8 µM
- GI50 (A549 NSCLC): 21.9 µM
- TGI (A549 NSCLC): 55.7 µM
- GI50 (OVCAR-3 ovarian): 24.8 µM
- TGI (OVCAR-3 ovarian): 54.6 µM
- GI50 (K-562 leukemia): 31.1 µM
- TGI (K-562 leukemia): > 100 µM
- GI50 (NCI-H522 lung): 25.9 µM
- TGI (NCI-H522 lung): 71.7 µM
- GI50 (SK-MEL-2 melanoma): 51.3 µM
- TGI (SK-MEL-2 melanoma): > 100 µM
- GI50 (A498 renal): 10.7 µM
- TGI (A498 renal): 48.9 µM
- GI50 (CAKI-1 renal): 25.8 µM
- TGI (CAKI-1 renal): 53.5 µM
- GI50 (OVCAR-5 ovarian): 27.2 µM
- TGI (OVCAR-5 ovarian): 72.1 µM
- GI50 (BT-549 breast): 38 µM
- TGI (BT-549 breast): 99.6 µM
- GI50 (HCC-2998 colon): 18.8 µM
- TGI (HCC-2998 colon): 34.4 µM
- GI50 (786-0 renal): 16.9 µM
- TGI (786-0 renal): 36.9 µM
- GI50 (HCT-15 colon): 30.4 µM
- TGI (HCT-15 colon): > 100 µM
- GI50 (IGROV1 ovarian): 35.8 µM
- TGI (IGROV1 ovarian): > 100 µM
- GI50 (OVCAR-8 ovarian): 40.5 µM
- TGI (OVCAR-8 ovarian): > 100 µM
- GI50 (NCI-H460 lung): 32.2 µM
- TGI (NCI-H460 lung): > 100 µM
- GI50 (HL-60(TB) leukemia): 36.2 µM
- TGI (HL-60(TB) leukemia): > 100 µM
- GI50 (UACC-257 melanoma): 29.7 µM
- TGI (UACC-257 melanoma): 71.3 µM
- GI50 (MCF7 breast): 18.8 µM
- TGI (MCF7 breast): > 100 µM
- GI50 (SF-539 CNS): 27.1 µM
- TGI (SF-539 CNS): 51.1 µM
- GI50 (M14 melanoma): 16.9 µM
- TGI (M14 melanoma): 35.9 µM
- GI50 (NCI-H23 lung): 17.5 µM
- TGI (NCI-H23 lung): 42.9 µM
- GI50 (KM12 colon): 19 µM
- TGI (KM12 colon): 44.3 µM
- GI50 (HS 578T breast): 23.7 µM
- TGI (HS 578T breast): 86.3 µM
- GI50 (CCRF-CEM leukemia): 11.7 µM
- TGI (CCRF-CEM leukemia): 81.8 µM
- GI50 (SF-268 CNS): 21 µM
- TGI (SF-268 CNS): 50 µM
- GI50 (SK-MEL-5 melanoma): 18.3 µM
- TGI (SK-MEL-5 melanoma): 39 µM
- GI50 (TK-10 renal): 19.3 µM
- TGI (TK-10 renal): 45 µM
- GI50 (SF-295 CNS): 29.3 µM
- TGI (SF-295 CNS): 66.3 µM
